Where two headings read alike, the source gives them in different places. No end group written: not given here.
Legend:
E. coli [1] = assay type: cell-based; details: ALS225 cells, minimal inducing plate (M9 glycerol Amp IPTG), grid patching
E. coli [2] = test: Growth rate analysis in liquid media of cells expressing induced peptides; assay type: cell-based; details: for % Inhibition (of the growth rate): ALS225, minimal media, 1 mM IPTG, versus induced pLAC11 vector, average of three determinations; for % inhibition versus pLAC11 control (inhibitory peptide): induced inhibitor; for % inhibition versus pLAC11 control (inhibitory peptide) / % inhibition versus pLAC11 control (antisense construct): growth rate; for % inhibition versus pLAC11 control (antisense construct): ATG start codon converted to ACG, induced
Calpain = details: Inhibited Protein: Calpain; read-out: Binding Constant; cited from earlier work
ATPase = details: read-out: Binding Constant; Inhibited Protein: ATPase; cited from earlier work
Nicotinic Acetylcholine = details: read-out: Binding Constant; cited from earlier work
galanin receptor = test: Radio immunoassay, displacement of radiolabeled galanin from its receptor; assay type: binding
Description: Radio immunoassays (RIAs) were performed to determine the ability of galanin and its APP derivatives to displace radiolabeled galanin from its receptor.

[3] = Steif et al. 1993; cited from earlier work

Row | Molecule | Type (one day / two day inhibitor) (E. coli [1]) | % Inhibition (of the growth rate) (E. coli [2]) [%] | other results
1 | pPep7: 6 aa inhibitor peptide (SEQ ID NO:40) (MYLFIG; stabilized peptide) | 1 Day (able to prevent the growth of the E. coli bacteria at 24 hours) | 26 | 
2 | pPep12: 14 aa two day inhibitor peptide (SEQ ID NO:46), two prolines near the C-terminus; printed pPep22 in Table 10 (MNGRTKRIRDPPAA; stabilized peptide) | two day | 82 | Type (one day / two day inhibitor) (E. coli [1]; listed as pPep22): 2 Day (able to prevent the growth of the E. coli bacteria at 48 hours); % inhibition versus pLAC11 control (inhibitory peptide) (E. coli [2]): 80%
3 | SCP (153-180) |  |  | Kd (Calpain): 30 nM
4 | pPep19: 5 aa inhibitor peptide (SEQ ID NO:52) (MRGAN; stabilized peptide) | 1 Day (able to prevent the growth of the E. coli bacteria at 24 hours) | 29 | % inhibition versus pLAC11 control (inhibitory peptide) (E. coli [2]): 29%
5 | pPep8: 21 aa inhibitor peptide (SEQ ID NO:43) (MLLFGGDCGKAGYFTVLPSR; stabilized peptide) | 1 Day (able to prevent the growth of the E. coli bacteria at 24 hours) | 29 | 
6 | pPep10: 20 aa inhibitor peptide (SEQ ID NO:45) (MIGGSLSFAWAIVCNKNSHV; stabilized peptide) | 1 Day (able to prevent the growth of the E. coli bacteria at 24 hours) | 24 | 
7 | Myotoxin (29-42) |  |  | Kd (ATPase): 19000 nM
8 | pPep5: 16 aa inhibitor peptide encoded by clone pPep5 (SEQ ID NO:36) (MWRDSWIKGRDVGFMG; stabilized peptide) | 1 Day (able to prevent the growth of the E. coli bacteria at 24 hours) | 24 | % inhibition versus pLAC11 control (inhibitory peptide) (E. coli [2]): 23%
9 | α-Conotoxin GIA |  |  | Kd (Nicotinic Acetylcholine): 1 nM
10 | pPep13: 18 aa inhibitor peptide (SEQ ID NO:48), C-terminal proline (MDREVMCAAKQEWKERTP; stabilized peptide) | 1 Day (able to prevent the growth of the E. coli bacteria at 24 hours) | 28 | % inhibition versus pLAC11 control (inhibitory peptide) (E. coli [2]): 28%
11 | pPep17: 12 aa inhibitor peptide (SEQ ID NO:51), C-terminal proline (MLGLEATYPFNP; stabilized peptide) | 1 Day (able to prevent the growth of the E. coli bacteria at 24 hours) | 28 | 
12 | pPep6: 42 aa inhibitor peptide (SEQ ID NO:39); last 25 aa could form a hydrophobic membrane-spanning domain (MSGGHVTRECKSAMSNRWIYVIRILMFDSLSSISFNAVVYHS; also: stabilized peptide) | 1 Day (able to prevent the growth of the E. coli bacteria at 24 hours) | 27 | 
13 | galanin with the APP (Ala-Pro-Pro) motif at the amino terminus [APP-galanin] |  |  | Ki (galanin receptor): 6.42 nM
14 | pPep12-anti: pPep12 insert recloned in pLAC11 with ATG start codon changed to ACG (SEQ ID NO:31) (nucleic acid, expressed or natural sequence) DNA: TACTATAGATCTACGAACGGCCGAACCAAACGAATCCGGGACCCACCAGCCGCCTAAACAGCTACCAGCTGTGGTAATAAGAATTCTCGACA |  |  | % inhibition versus pLAC11 control (antisense construct) (E. coli [2]): 0%
15 | pPep19-anti: pPep19 insert recloned in pLAC11 with ATG start codon changed to ACG (SEQ ID NO:33) (nucleic acid, expressed or natural sequence) DNA: TACTATAGATCTACGAGGGGCGCCAACTAAGGGGGGGGGAAGGTATTTGTCCCGTGCATAATCTCGGGTGTTGTCTAATAAGAATTCTCGACA |  |  | % inhibition versus pLAC11 control (antisense construct) (E. coli [2]): 0%
16 | pPep1-anti: pPep1 insert recloned in pLAC11 with ATG start codon changed to ACG (SEQ ID NO:29) (nucleic acid, expressed or natural sequence) DNA: TACTATAGATCTACGGTCACTGAATTTTGTGGCTTGTTGGACCAACTGCCTTAGTAATAGTGGAAGGCTGAAATTAATAAGAATTCTCGACA |  |  | % inhibition versus pLAC11 control (antisense construct) (E. coli [2]): 0%
17 | pPep5-anti: pPep5 insert recloned in pLAC11 with ATG start codon changed to ACG (SEQ ID NO:30) (nucleic acid, expressed or natural sequence) DNA: TACTATAGATCTACGTGGCGGGACTCATGGATTAAGGGTAGGGACGTGGGGTTTATGGGTTAAAATAGTTTGATAATAAGAATTCTCGACA |  |  | % inhibition versus pLAC11 control (antisense construct) (E. coli [2]): 0%
18 | Rop: small 63 amino acid four-helix bundle protein from the ColEl replicon, used as stabilizing group (protein, UniProt P03051 1-63, looked up) Regulatory protein rop: MTKQEKTALNMARFIRSQTLTLLEKLNELDADEQADICESLHDHADELYRSCLARFGDDGENL |  |  | midpoint temperature of denaturation, Tm [3]: about 71 °C
19 | pPep13-anti: pPep13 insert recloned in pLAC11 with ATG start codon changed to ACG (SEQ ID NO:32) (nucleic acid, expressed or natural sequence) DNA: TACTATAGATCTACGGACCGTGAAGTGATGTGTGCGGCAAAACAGGAATGGAAGGAACGAACGCCATAGGCCGCGTAATAAGAATTCTCGACA |  |  | % inhibition versus pLAC11 control (antisense construct) (E. coli [2]): 0%

Source: patent publication US7365162B2, “Stabilized bioactive peptides and methods of identification, synthesis, and use” (priority 1998, dated 2008)
